Measured values from patent US20110172097A1, “Imidazole and Triazole Compounds, Their Use and Agents Containing The Same” (BASF SE, priority 2008, published 2011).

How the values were obtained:
[1] = test system: Pyricularia oryzae; assay type: cell-based; details: day 7, 405 nm, active compound-free control = 100%
[2] = test system: Phakopsora pachyrhizi; test: Example G1 - Curative activity against soybean rust caused by Phakopsora pachyrhizi (greenhouse); assay type: in vivo, Phakopsora pachyrhizi on soybean seedlings; details: 300 ppm, curative spray 24 h after inoculation, assessed after 14 days, untreated plants 90% infected
[3] = test system: Septoria tritici; test: CG1 - Protective activity against Septoria leaf spot of wheat caused by Septoria tritici (greenhouse); assay type: in vivo, Septoria tritici on wheat seedlings; details: protective spray 24 h before inoculation, assessed after 21 days, % infection of total leaf area, untreated control 90
Method: Subsequently, it was made up to 100 ml with water. This stock solution was diluted with the described solvent/emulsifier/water mixture to the active compound concentration indicated below. Alternatively, the active compounds were used as a commercially available ready-to-use solution and diluted with water to the active compound concentration indicated. CG1 Protective Activity Against Septoria Leaf Spot of Wheat Caused by Septoria tritici Leaves of potted wheat seedlings were sprayed to run off point with an aqueous suspension having the active compound concentration stated below. 24 hours after the spray coating had dried on, they were inoculated with an aqueous spore suspension of Septoria tritici. The test plants were then placed in a greenhouse at temperatures between 18 and 22° C. and a relative atmospheric humidity close to 100% for 4 days and then at temperatures between 18 and 22° C. and an atmospheric humidity of about 70%. After 21 days, the extent of the development of the disease was determined visually in % infection of the total leaf area.

CC(C)(CCCC(C(O)C(C)(C)C)n1cncn1)c1ccccc1 (centres unmarked) [I.A1a, 2,2,8-trimethyl-8-phenyl-4-[1,2,4]triazol-1-ylnonan-3-ol]
Growth (%) at 31 ppm CM1 [1]: 26%

CC(C)(CCCC(C(O)C(C)(C)C)n1cncn1)c1ccccc1 (centres unmarked) [I.A1b, 2,2,8-trimethyl-8-phenyl-4-[1,2,4]triazol-1-ylnonan-3-ol]
extent of the rust fungus development on the leaves in % infection [2]: 0%

CC(C)(C)C(O)C(CCCCc1ccc(F)cc1)n1cncn1 (centres unmarked) [I.A5a, 8-(4-fluorophenyl)-2,2-dimethyl-4-[1,2,4]triazol-1-yloctan-3-ol]
Infection (%) at 600 ppm CG1 [3]: 10%

CC(C)(C)C(O)C(CCCCc1ccccc1)n1cncn1 (centres unmarked) [reference compound]
Growth (%) at 31 ppm CM1 [1]: 61%

CC(C)(C)C(O)C(CCCCc1ccc(Cl)cc1)n1cncn1 (centres unmarked) [reference compound]
Infection (%) at 600 ppm CG1 [3]: 40%
